Source: US6337346B1 (University of North Carolina at Chapel Hill, priority 1998, dated 2002)
Converted amounts (≈) assume the structure as drawn. Read-outs that look alike come from different tables or passages of the source.

How the values were obtained:
KB cells [1] = assay: Preliminary KB cell assay (cytotoxicity); assay type: cell-based; conditions: Homo sapiens, numbering of Examples 14-16, read-out: ED50 (the source's name)
Description: Many anthraquinones, including mitoxantrone (1), show antineoplastic activity (Zee-Cheng, R. Y.; Podrebarac, E. G; Menon, C. S.; Cheng, C. C. J. Med. Chem. 1979, 22, 501-505). In addition, the natural product 2-acetyl-4H, 9H-naphtho[2,3-b]furan-4,9-dione (2) isolated from Tabebuia cassinoids (Lam.) DC.
The unsubstituted (3), two mono-acetyl (5, 6), and two di-acetyl (9, 10) derivatives were tested for cytotoxicity in a preliminary KB cell assay.

MDA-N = assay: NCI in vitro disease-oriented tumor cells screen; assay type: cell-based, human; conditions: Homo sapiens, Breast Cancer MDA-N, average of at least two testings, read-out: Cytotoxicity log GI50 (converted)
Description: (§1) (Activity is defined as log GI50<−4 where GI50 is the molar concentration causing 50% cell growth inhibition).

SW-620 = assay: NCI in vitro human tumor cell line assay; assay type: cell-based; conditions: Colon Cancer SW-620, Table 3 (numbering of Examples 14-16), average of at least two testings, read-out: Cytotoxicity log GI50 (converted)
NCI-H23 = assay: NCI in vitro disease-oriented tumor cells screen; assay type: cell-based, human; conditions: Homo sapiens, Non-Small Cell Lung Cancer NCI-H23, average of at least two testings, read-out: Cytotoxicity log GI50 (converted)
Description: as §1

MCF 7 = assay: NCI in vitro human tumor cell line assay; assay type: cell-based; conditions: MCF7, Breast Cancer MCF 7, Table 3 (numbering of Examples 14-16), average of at least two testings, read-out: Cytotoxicity log GI50 (converted)
NCI-H552 = assay: NCI in vitro human tumor cell line assay; assay type: cell-based; conditions: Non-Small Cell Lung Cancer NCI-H552, Table 3 (numbering of Examples 14-16), average of at least two testings, read-out: Cytotoxicity log GI50 (converted)
OVCAR-3 = assay: NCI in vitro disease-oriented tumor cells screen; assay type: cell-based, human; conditions: Homo sapiens, Ovarian Cancer OVCAR-3, average of at least two testings, read-out: Cytotoxicity log GI50 (converted)
Description: as §1

MDA-MB-435 = assay: NCI in vitro disease-oriented tumor cells screen; assay type: cell-based, human; conditions: Homo sapiens, Breast Cancer MDA-MB-435, average of at least two testings, read-out: Cytotoxicity log GI50 (converted)
Description: as §1

SNB-19 = assay: NCI in vitro human tumor cell line assay; assay type: cell-based; conditions: CNS Cancer SNB-19, Table 3 (numbering of Examples 14-16), average of at least two testings, read-out: Cytotoxicity log GI50 (converted)
SF-539 = assay: NCI in vitro human tumor cell line assay; assay type: cell-based; conditions: CNS Cancer SF-539, Table 3 (numbering of Examples 14-16), average of at least two testings, read-out: Cytotoxicity log GI50 (converted)
IGROV1 = assay: NCI in vitro human tumor cell line assay; assay type: cell-based; conditions: IGROV-1, Ovarian Cancer IGROV1, Table 3 (numbering of Examples 14-16), average of at least two testings, read-out: Cytotoxicity log GI50 (converted)
human tumor cell lines [2] = assay: NCI in vitro screen, mean over all cell lines tested; conditions: Homo sapiens, read-out: Cytotoxicity log GI50, Mean Value (converted)
Description: as §1

SK-MEL-5 = assay: NCI in vitro disease-oriented tumor cells screen; assay type: cell-based, human; conditions: Homo sapiens, Melanoma SK-MEL-5, average of at least two testings, read-out: Cytotoxicity log GI50 (converted)
Description: as §1

MOLT-4 [3] = assay: NCI in vitro human tumor cell line assay; conditions: MOLT-4, read-out: Cytotoxicity log GI50 (converted)
HCT-15 = assay: NCI in vitro human tumor cell line assay; assay type: cell-based; conditions: Colon Cancer HCT-15, Table 3 (numbering of Examples 14-16), average of at least two testings, read-out: Cytotoxicity log GI50 (converted)
MCF 7/ADR-RES = assay: NCI in vitro human tumor cell line assay; assay type: cell-based; conditions: MCF7, Breast Cancer MCF 7/ADR-RES, Table 3 (numbering of Examples 14-16), average of at least two testings, read-out: Cytotoxicity log GI50 (converted)
LOX IMVI = assay: NCI in vitro disease-oriented tumor cells screen; assay type: cell-based, human; conditions: Homo sapiens, Melanoma LOX IMVI, average of at least two testings, read-out: Cytotoxicity log GI50 (converted)
Description: as §1

CCRF-CEM = assay: NCI in vitro human tumor cell line assay; assay type: cell-based; conditions: Leukemia CCRF-CEM, Table 3 (numbering of Examples 14-16), average of at least two testings, read-out: Cytotoxicity log GI50 (converted)
NCI-H460 = assay: NCI in vitro human tumor cell line assay; assay type: cell-based; conditions: Non-Small Cell Lung Cancer NCI-H460, Table 3 (numbering of Examples 14-16), average of at least two testings, read-out: Cytotoxicity log GI50 (converted)
KB cells [4] = conditions: KB cells; background, numbering of Examples 1-13; cited from earlier work
P-399 = assay: Preliminary cytotoxicity testing of 6 and 16 (Table 1); assay type: cell-based; conditions: Table 1, preliminary testing
A549 = assay: as above; assay type: cell-based; conditions: Homo sapiens, Table 1, preliminary testing
HCT-8 = assay: as above; assay type: cell-based; conditions: Homo sapiens, Table 1, preliminary testing
CAKI-1 = assay: as above; assay type: cell-based; conditions: Homo sapiens, Table 1, preliminary testing
KB = assay: as above; assay type: cell-based; conditions: Homo sapiens, Table 1, preliminary testing
[5] = test system: several leukemia cell lines; assay: Preliminary cytotoxicity testing, summary in words; assay type: cell-based
MOLT-4 [6] = conditions: human
L-1210 = assay: Preliminary cytotoxicity testing of 6 and 16 (Table 1); assay type: cell-based; conditions: Mus musculus, L1210, Table 1, preliminary testing
MCF-7 = assay: as above; assay type: cell-based; conditions: Homo sapiens, MCF7, Table 1, preliminary testing
SK-MEL-2 [7] = assay: NCI in vitro disease-oriented tumor cells screen; assay type: cell-based, human; conditions: Homo sapiens; Melanoma SK-MEL-2; Table 2; average of at least two testings; read-out: Cytotoxicity log GI50 (converted)
Description: as §1

BT-549 = assay: NCI in vitro disease-oriented tumor cells screen; assay type: cell-based, human; conditions: Homo sapiens; Breast Cancer BT-549; Table 2; average of at least two testings; read-out: Cytotoxicity log GI50 (converted)
Description: as §1

OVCAR-8 = assay: NCI in vitro disease-oriented tumor cells screen; assay type: cell-based, human; conditions: Homo sapiens; Ovarian Cancer OVCAR-8; Table 2; average of at least two testings; read-out: Cytotoxicity log GI50 (converted)
Description: as §1

SK-MEL-28 = assay: NCI in vitro disease-oriented tumor cells screen; assay type: cell-based, human; conditions: Homo sapiens; Melanoma SK-MEL-28; Table 2; average of at least two testings; read-out: Cytotoxicity log GI50 (converted)
Description: as §1

UACC-257 = assay: NCI in vitro disease-oriented tumor cells screen; assay type: cell-based, human; conditions: Homo sapiens; Melanoma UACC-257; Table 2; average of at least two testings; read-out: Cytotoxicity log GI50 (converted)
Description: as §1

M14 = assay: NCI in vitro disease-oriented tumor cells screen; assay type: cell-based, human; conditions: Homo sapiens; Melanoma M14; Table 2; average of at least two testings; read-out: Cytotoxicity log GI50 (converted)
Description: as §1

MALME-3M = assay: NCI in vitro disease-oriented tumor cells screen; assay type: cell-based, human; conditions: Homo sapiens; Melanoma MALME-3M; Table 2; average of at least two testings; read-out: Cytotoxicity log GI50 (converted)
Description: as §1

melanoma cell lines = assay: NCI in vitro screen, melanoma cell lines as a group; assay type: cell-based, human; conditions: numbering of Examples 1-13
HS 578T = assay: NCI in vitro disease-oriented tumor cells screen; assay type: cell-based, human; conditions: Homo sapiens; Breast Cancer HS 578T; Table 2; average of at least two testings; read-out: Cytotoxicity log GI50 (converted)
Description: as §1

UACC-62 = assay: NCI in vitro disease-oriented tumor cells screen; assay type: cell-based, human; conditions: Homo sapiens; Melanoma UACC-62; Table 2; average of at least two testings; read-out: Cytotoxicity log GI50 (converted)
Description: as §1

human tumor cell lines [8] = test system: human tumor cell lines
Description: as §1

HL-60(TB) = assay: NCI in vitro disease-oriented tumor cells screen; assay type: cell-based, human; conditions: Homo sapiens; Leukemia HL-60(TB); Table 2; average of at least two testings; read-out: Cytotoxicity log GI50 (converted)
SK-MEL-2 [9] = assay: Preliminary cytotoxicity testing of 6 and 16 (Table 1); assay type: cell-based; conditions: Homo sapiens, Table 1, preliminary testing
[10] = Table 3 (numbering of Examples 14-16)
[11] = Table 2 (numbering of Examples 1-13)

Row | melting point | Compound | EC50 (KB cells [1]) | GI50 (MDA-N; [10]) | GI50 (SW-620) | GI50 (NCI-H23; [10]) | GI50 (MCF 7) | GI50 (NCI-H552) | GI50 (OVCAR-3; [10]) | GI50 (MDA-MB-435; [10]) | GI50 (SNB-19) | GI50 (SF-539) | GI50 (IGROV1) | GI50 (human tumor cell lines [2]) | GI50 (SK-MEL-5; [10]) | GI50 (MOLT-4 [3]) | GI50 (HCT-15) | GI50 (MCF 7/ADR-RES) | GI50 (LOX IMVI; [10]) | GI50 (CCRF-CEM) | GI50 (NCI-H460) | also measured
1 |  | O=C1c2ccccc2C(=O)c2sccc21 [Compound 3, naphtho[2,3-b]thiophene-4,9-dione, reference compound] | 6.5 µM |  |  |  |  |  |  |  |  |  |  |  |  |  |  |  |  |  |  | 
2 | 139 to 140 °C | CC(=O)c1cc2c(s1)C(=O)c1ccccc1C2=O [Compound 5, 2-Acetyl-naphtho[2,3-b]thiophene-4,9-dione] | ~1.5 µM | 1.2 µM | 0.457 µM | 0.447 µM | 1.7 µM | 0.407 µM | 0.501 µM | 0.339 µM | 0.501 µM | 0.759 µM | 1.78 µM | 1.95 µM | 0.347 µM | 2.04 µM | 0.708 µM | 1.91 µM | 0.347 µM | 1 µM | 0.457 µM | ED50 (KB cells [4]): 0.4 mg/L (≈ 1.56 µM)
3 | 244 to 245 °C | CC(=O)c1csc2c1C(=O)c1ccccc1C2=O [Compound 6, 3-Acetyl-naphtho[2,3-b]thiophene-4,9-dione] | 5 µM | 0.933 µM | 2.19 µM | 1.05 µM | 2.09 µM | 1.74 µM | 3.55 µM | 0.324 µM | 1.78 µM | 2.04 µM | 2.45 µM | 2.14 µM | 0.17 µM | < 0.01 µM | 17.4 µM | 2.88 µM | 2.34 µM | 1.55 µM | 1.32 µM | IC50 (P-399): < 0.1 mg/L; IC50 (A549): 0.048 mg/L (≈ 0.187 µM); IC50 (HCT-8): 0.06 mg/L (≈ 0.234 µM); IC50 (CAKI-1): 0.28 mg/L (≈ 1.09 µM); IC50 (KB): 0.058 mg/L (≈ 0.226 µM); activity against several leukemia cell lines (in words) [5]: significant activity; Cytotoxicity log GI50 (MOLT-4 [6]): <−8.00 M; IC50 (L-1210): 0.32 mg/L (≈ 1.25 µM); IC50 (MCF-7): 0.09 mg/L (≈ 0.351 µM)
4 |  | O=C1c2ccsc2C(=O)c2sccc21 [Compound 16] |  |  |  |  |  |  |  |  |  |  |  |  |  |  |  |  |  |  |  | IC50 (A549): 0.032 mg/L (≈ 0.145 µM); IC50 (HCT-8): 0.032 mg/L (≈ 0.145 µM); IC50 (CAKI-1): 0.11 mg/L (≈ 0.499 µM); IC50 (KB): 0.05 mg/L (≈ 0.227 µM); activity against several leukemia cell lines (in words) [5]: significant activity; IC50 (MCF-7): < 0.016 mg/L; IC50 (SK-MEL-2 [9]): 0.06 mg/L (≈ 0.272 µM)

Row | Compound | melting point | EC50 (KB cells [1]) | GI50 (MDA-N; [10]) | GI50 (SW-620) | GI50 (NCI-H23; [10]) | GI50 (MCF 7) | GI50 (NCI-H552) | GI50 (OVCAR-3; [10]) | GI50 (MDA-MB-435; [10]) | GI50 (SNB-19) | GI50 (SF-539) | GI50 (IGROV1) | GI50 (human tumor cell lines [2]) | GI50 (SK-MEL-5; [10]) | GI50 (MOLT-4 [3]) | GI50 (HCT-15) | GI50 (MCF 7/ADR-RES) | GI50 (LOX IMVI; [10]) | GI50 (CCRF-CEM) | GI50 (NCI-H460) | also measured
5 | CC(=O)OC(C)c1cc2c(s1)C(=O)c1c(C(C)OC(C)=O)csc1C2=O (stereo not drawn) [Compound 15, 2,7-Bis(1′-acetoxyethyl)-4,8-dihydrobenzo[1,2-b:4,5-b′]dithiophene-4,8-dione] | 180 to 182 °C |  |  |  |  |  |  |  |  |  |  |  | 1.2 µM |  |  |  |  |  |  |  | GI50 (MDA-N; [11]): 0.214 µM; GI50 (SK-MEL-2 [7]): 1.55 µM; GI50 (NCI-H23; [11]): 0.871 µM; GI50 (OVCAR-3; [11]): 0.275 µM; GI50 (MDA-MB-435; [11]): 0.186 µM; GI50 (BT-549): 2.14 µM; GI50 (OVCAR-8): 0.457 µM; GI50 (SK-MEL-28): 1.66 µM; GI50 (UACC-257): 0.631 µM; GI50 (M14): 0.513 µM; GI50 (MALME-3M): 0.186 µM; potency / selectivity towards melanoma cell lines (in words) (melanoma cell lines): not selective towards melanoma cell lines; GI50 (SK-MEL-5; [11]): 0.631 µM; GI50 (HS 578T): 2.09 µM; GI50 (UACC-62): 1.1 µM; GI50 (LOX IMVI; [11]): 1.58 µM; overall cytotoxicity / potency (in words) (human tumor cell lines [8]): less active in all cell lines; GI50 (HL-60(TB)): 0.0676 µM
